Publication PMC10987543 (Cell Death Discovery, 2024)
“Also recorded” adds a separate entry of the source. Ends that are not written are not given here.

Key:
caspase-3 = assay: Caspase-3 activity assay in cell lysate; type: cell-based, murine; settings: 4T1 cells, 100 µM, N = 3
Method: Ten thousand 4T1 cells were seeded in 96-well plates and incubated overnight. After CKS1 treatment, the cells were lysed using a lysis buffer (Cell Signaling Technology, #7018). The activity of caspase-3 in the cell lysate was quantified using the caspase-3 activity assay kit (Cell Signaling Technology, #5723) following the manufacturer’s instructions. Briefly, the cell lysate was incubated with a substrate of caspase-3 which was designed to emit fluorescence when cleaved. After incubation, the fluorescence was measured using a plate reader. The protein concentration of the cell lysate was quantified using the DC protein assay kit (Bio-Rad). The caspase-3 activity was divided by the protein concentration to obtain the caspase-3 activity per µg/mL protein in the cell lysate.

4T1 cells [1] = assay: Calcein-AM live cell imaging of cytosol release; type: cell-based, murine
Method: (§1) Fluorescence labeling of cells was performed by seeding 5.0 × 10^4 4T1 cells in a 35 mm dish on a collagen-coated No. 1.5 coverslip with a 14 mm glass diameter (MatTek, Ashland, MA). After overnight incubation, the cells were washed once with serum-free media and replaced with fresh serum-free media. For cell cytosol labeling, Calcein-AM (Thermo Fisher Scientific, C1430) was added at a final concentration of 5 µg/mL and incubated for 10 min. For mitochondrial membrane labeling, JC-1 (Thermo Fisher Scientific, T3168) was added at a final concentration of 10 µg/mL and incubated for 10 min. To monitor the activity of caspases, CellEvent Caspase-3/7 Red detection reagents (Thermo Fisher Scientific, C10423) were used following the manufacturer’s instructions. For nuclear staining, Hoechst 33342 (Cell Signaling Technology, #4082) was added at a final concentration of 5 µg/mL and incubated for 10 min.
Cells were imaged on either a Zeiss LSM 700 or a 3i spinning disk confocal microscope. Samples were imaged with optimized microscope settings. Z-stack, time-lapse, or multi-channel acquisition settings were adjusted based on the experimental requirements. Images were then acquired with the appropriate excitation and emission wavelengths for each fluorophore.
(§2) Image processing was performed using Fiji software. For each image/video, the brightness and the contrast were adjusted. The time stamp and the scale bar were added. For quantification, CellProfiler was used. After cell segmentation based on the nucleus, the intensity of the signal of interest was quantified for each cell. Based on the intensity, each cells were labeled as positive or negative and the fraction of positive cells was calculated.

4T1 cells [2] = assay: JC-1 mitochondrial membrane potential live cell imaging; type: cell-based, murine; settings: 100 µM
Method: as §1
Cells were imaged on either a Zeiss LSM 700 or a 3i spinning disk confocal microscope. Samples were imaged with optimized microscope settings. […]
as §2, with “For each image/video, the brightness and the contrast were adjusted. The time stamp and the scale bar were added.” left out

4T1 cells [3] = assay: Quantification of ATP release; type: cell-based, murine; settings: 20 µM or 100 µM, 30 min, N = 3
Method: (§3) Two-lakh cells of 4T1 cells or CT26 cells in growth media were seeded in wells of a 96-well plate. After 12 h, the media was replaced with serum-free media, and the cells were treated with the corresponding concentration of CKS1. […] After filtering the supernatant with a 0.2 µm pore filter (Corning, 431229), the amount of ATP in the supernatant was quantified using the ENLITEN ATP assay system (Promega Corporation, Madison, WI, FF2000). We followed the instructions from the manufacturer when using the ENLITEN ATP assay system.

CT26 cells = assay: Quantification of ATP release; type: cell-based, murine; settings: 20 µM or 100 µM, 30 min, N = 3
Method: as §3

4T1 murine TNBC cells = assay: Real-time cell viability assay (xCELLigence RTCA); type: cell-based; settings: serum-free media, dose-dependent, representative of N = 3
Method: Three thousand cells were seeded in the wells of an xCELLigence RTCA E-plate 16 (Agilent, Santa Clara, CA). After the cells adhered to the plate, the media was replaced with serum-free media, and the cells were treated with CKS1 at the indicated concentrations. The viability of the cells was monitored using the xCELLigence RTCA analyzer (Agilent).

4T1 cells [4] = assay: LDH release assay (CyQUANT); type: cell-based, murine; settings: 6 h, indicated concentrations, normalized to lysis buffer
Method: Ten thousand cells were seeded in a 96-well plate and incubated overnight. The cells were washed once, and the medium was replaced with serum-free media. Cells were treated with CKS1 for the indicated time and concentration. CyQUANT LDH cytotoxicity assay (Thermo Fisher Scientific) was used following the manufacturer’s instructions to measure the release of LDH. LDH release was normalized to the amount of LDH released from cells treated with lysis buffer.

HUVECs = assay: BrdU incorporation cell proliferation assay; type: cell-based, human; settings: at a concentration in which CKS1 did not induce LDH release, N = 3
Method: One thousands cells were seeded in wells of a 96-well plate. The cells were treated with the indicated concentration of CKS1 immediately after seeding. Forty-eight hours later, 5-bromo-2’-deoxyuridine (BrdU) was added to each well. Twenty four hours later, BrdU incorporation was quantified using the BrdU cell proliferation assay kit (Cell Signaling Technology, Danvers, MA) following the manufacturer’s instructions.

4T1 tumors = assay: 4T1 triple breast cancer model, intratumoral treatment; type: in vivo, Balb/c mice
Method: The protocols used in this study were approved by the Institutional Care and Use Committee at Johns Hopkins Medical Institutions. Four- to eight-week-old female Balb/c mice were obtained from Charles River (Wilmington, MA). For the 4T1 […] model, 2.5 × 10^4 4T1 cells were injected into the first mammary fat pad of each mouse. For the CT26 colon carcinoma model, 1.0 × 10^6 CT26 cells were injected subcutaneously in the left flank. The sample size was determined so that the final distribution would be close to normal distribution. After 1 week, the animals were randomized into control and CKS1 treatment. During the randomization, the mice were kept in a cage covered with cloth so that the investigator could not see the tumor size. We started daily intratumoral treatment with 40 mg/kg CKS1. For the control group, the matching volume of water was treated intratumorally. The tumor size was measured by using a caliper, and the volume was calculated by using the formula 0.52 × (length) × (width)^2.
Tumors were fixed by immersion in 10% neutral buffered formalin (Millipore Sigma) for 48 h and subsequently dehydrated by immersion in 70%, 90%, and 100% ethanol followed by xylene for two changes of 30 min each. Tissues were embedded in paraffin blocks at 58 °C and sectioned at 4 μm using a microtome. […]

NGRKACLNPASPIVKKIIEKMLNS-NH2 [CKS1, Chemokinostatin-1]
caspase-3 activity in cell lysate (caspase-3; 30 min): not activated | caspase-3 activity in cell lysate (caspase-3; 4 h): activated after 4 h | time to release of cytosol (calcein) after treatment (4T1 cells [1]; 4T1 cells stained with calcein-AM, 100 µM, representative of N = 3): 15 to 30 min | fraction of cancer cells with damaged cell membrane (4T1 cells [1]; concentration significantly higher than the IC50 value): ~100% | mitochondrial membrane potential (JC-1 fluorescence) (4T1 cells [2]): rapid switch of JC-1 emitted fluorescence from red to green | release of ATP in the culture media (4T1 cells [3]): significant release of ATP | release of ATP in the culture media (CT26 cells): significant release of ATP | time to cell death (reduction in cell index) after treatment (4T1 murine TNBC cells): ≤ 1 h | release of LDH (4T1 cells [4]): released significant amounts of LDH | cell proliferation (BrdU incorporation) (HUVECs): significantly attenuated cell proliferation | tumor growth (tumor volume) (4T1 tumors; 4T1 tumors, 40 mg/kg intratumoral daily from day 7, N = 15, 40 mg/kg): inhibited; also recorded: relatively modest response | tumor necrosis (H&E stain) (4T1 tumors; established 4T1 tumors, intratumoral injection, 24 h, representative of N = 3): Necrosis was observed
